The text below walks through data of US20030217372A1, “Methods of using alpha 1b-adrenergic receptors” (priority 2002, published 2003).

Structures can show the parent of a compound that is named as a salt.

Assay [1] concerns WT and α1b-AR KO mice. The assay can be described thus: Locomotor activity in circular corridor after acute drug injection. The class given is in vivo. Conditions: for amplitude of locomotor response, α1b-AR KO vs WT mice: D-amphetamine 2 and 3 mg/kg, cocaine and morphine independent of dose. As for the experimental part: FIG. 2 is a series of dose response graphs that depicts the results of locomotor response to novelty, saline, scopolamine and chloro-APB experiments in WT and α1b-AR KO mice. […] Animals were placed in the experimental apparatus for 90 minutes, received a saline injection and were replaced in the apparatus for 60 minutes. On the following day, animals were placed in the experimental apparatus for 90 minutes, they received an intraperitoneal injection of either saline or scopolamine (1 mg/kg) and their locomotor response was measured every 5 minutes for 60 minutes. FIG. 2D represents the results of locomotor response to chloro-APB; animals were placed in the experimental apparatus for 90 minutes, received a saline injection and were replaced in the apparatus for 60 minutes. On the following days, animals were placed in the experimental apparatus for 90 minutes, they received an intraperitoneal injection of chioro-APB and their locomotor response was measured every 5 minutes for 60 minutes. Several doses of chloro-APB were tested on consecutive days in a random order.
Independent groups of animals were used for each treatment to avoid eventual behavioral sensitization (N=6-16 per group).
(§1) Mice were introduced in a circular corridor (4.5 cm width, 17 cm external diameter) crossed by four infrared beams (1.5 cm above the base) placed at every 90° (Imetronic, Pessac, France). The locomotor activity was counted when animals interrupted two successive beams and, thus, had traveled ¼ of the circular corridor. In each session, the spontaneous activity was recorded for 90 minutes, before mice received either saline or drugs. Their activity was recorded for an additional 60 minutes or 120 minutes period. The first session was a session of habituation to the experimental procedure during which animals received saline (˜3 ml/kg, i.p.). The locomotor response to a drug administration was measured on the following day. Tests were performed between 12:00 and 6:00 p.m. in stable conditions of temperature and humidity.

The subject of assay [2] is WT and α1b-AR KO mice. Kind of assay: Locomotor sensitization induced by repeated drug administration. The class given is in vivo. Here is the method:
Animals spent 90 minutes in the experimental apparatus, received a saline injection and were replaced in the apparatus for 60 minutes. […] Four similar sessions took place every other day. The sixth session took place after a 10-day withdrawal. Locomotor responses measured during the first hour following each injection are presented in function of the number of injections and slope values. N=6 to 15 animals per group.
N=6 to 12 animals per group. […] FIG. 6B represents the time course of the locomotor responses measured every 5 minutes.
as §1
Data were analyzed with Student's t-test or analysis of variance. For behavioral sensitization experiments, correlation between the number of drug injections and the amplitude of the locomotor responses was analyzed with linear regression and the influence of genotype on this correlation with an analysis of covariance. Genotype and prazosin treatments were between-subjects factors. […] Differences were considered significant when p<0.05.
The rate of sensitization was evaluated by determining the slope of the “number of injections/response” curve (FIG. 5).

For assay [3], the system named is WT and α1b-AR KO mice. The assay can be described thus: Oral consumption, two-bottle choice paradigm. Conditions: cocaine 0.2 mg/ml, morphine 0.15 mg/ml. The class given is in vivo. As for the experimental part: Fluid intake was measured daily by weighting bottles, mice being housed individually. Tested solutions were replaced twice weekly.
Cocaine and morphine: For two weeks, bottles were filled with cocaine or morphine solution of decreasing concentration (one dose per week; 0.3 mg/ml then 0.2 mg/ml for cocaine and 0.2 mg/ml and 0.15 mg/ml for morphine) instead of water, so that mice accustom to the bitter taste. […] Then, to determine mean water consumption and eliminate basal side preference, two bottles of water were given for three days to each animal and basal consumption was calculated as the mean consumption from one bottle on day 2 and the other on day 3. Preference for cocaine (0.2 mg/ml) or morphine (0.15 mg/ml) was then measured over two 12-day sessions, drug and water sides being exchanged between the 2 sessions. Means of drug and water consumptions were estimated for the last 5 days of both 12-day periods.
Rewarding properties of cocaine and morphine were assessed in a two-bottle choice paradigm adapted from the method described by Ferraro et al. (Ferraro et al., Pharmacol. Biochem. Behav. 66:397-401, 2000) for cocaine and Borg and Taylor (Borg et al., Biochem. Behav. 47:633-46, 1994) for morphine.

The subject of assay [4] is WT and α1b-AR KO mice. The assay can be described thus: Morphine-induced conditioned place preference (Y maze). The class given is in vivo. Conditions: for conditioned place preference (CPP): morphine 5 mg/kg s.c.; for locomotor activity during conditioning sessions, morphine vs saline: repeated morphine 5 mg/kg s.c. As for the experimental part:
FIG. 8 is a series of histograms and dose response graphs that represents the results of a conditioned place preference experiment induced by morphine in WT and α1b-AR KO mice. WT and α1b-AR KO mice were conditioned to receive morphine (5 mg/kg s.c.) in a compartment and a saline injection in the other compartment. The saline group received saline injections in both compartments. N=6 to 11 animals per group. The upper left graph show the time spent in the morphine-associated compartment before conditioning (pre-test), after four morphine injections and four saline injections (post-test 1) and after two supplementary morphine and two supplementary saline injections (post-test 2). *p<0.05 and **p<0.01 when time spent in the drug compartment was different between pretest and post-test 1 or 2 (paired Student's t-test). The upper right graph show scores that correspond to the time spent in the morphine compartment during the post-test (1 and 2) minus time spent in the morphine compartment during the pre-test. p<0.05 when scores were higher for morphine treated mice than for saline treated mice (unpaired Student's t-test). The lower left and lower right graphs show the locomotor activity measured during the 30 minutes of each of the 12 conditioning sessions corresponding either to morphine or to saline injection. ***p<0.001 locomotor activity measured during the morphine session was higher than during the corresponding saline session (paired Student's t-test).
Conditioned place preference was measured in a Y maze. Mice were habituated to the experimental apparatus (Imetronic, Pessac, France) for 3 days (1 hour of exploration of the maze with neutral cues, i.e. smooth gray walls and floor). On the following day, animals were allowed to freely explore the two compartments (with different visual and tactile cues) of the maze for 20 minutes corresponding to a pre-conditioning test. The total amount of time spent in each compartment was recorded and analyzed as previously described (Valverde et al., Psychopharmacology (Berlin) 123:119-26, 1996). For the next […] corresponding to the conditioning session, mice alternatively received morphine (5 mg/kg; s.c.) in one compartment and saline in the other compartment the following day. According to the unbiased method, morphine was equally associated to both compartments and was given either first or second, mice being confined in one compartment for the 30 minutes following each injection. One day after the end of the conditioning session, mice were submitted to a post-conditioning test identical to the test performed before conditioning, i.e. each mice being allowed to explore both compartments for 20 minutes. […] Locomotor activities were recorded with electronic cells in each conditioning session.

The target in a further assay is T1, α1b-ARs (Mus musculus, UniProt P97717).
T1 construct: endogenous in cells; host or cells: living adult male WT mice (129/Sv x C57BL/6J mixed background), in vivo; α1b-AR KO mice as comparison
T1 sequence (P97717 1-514): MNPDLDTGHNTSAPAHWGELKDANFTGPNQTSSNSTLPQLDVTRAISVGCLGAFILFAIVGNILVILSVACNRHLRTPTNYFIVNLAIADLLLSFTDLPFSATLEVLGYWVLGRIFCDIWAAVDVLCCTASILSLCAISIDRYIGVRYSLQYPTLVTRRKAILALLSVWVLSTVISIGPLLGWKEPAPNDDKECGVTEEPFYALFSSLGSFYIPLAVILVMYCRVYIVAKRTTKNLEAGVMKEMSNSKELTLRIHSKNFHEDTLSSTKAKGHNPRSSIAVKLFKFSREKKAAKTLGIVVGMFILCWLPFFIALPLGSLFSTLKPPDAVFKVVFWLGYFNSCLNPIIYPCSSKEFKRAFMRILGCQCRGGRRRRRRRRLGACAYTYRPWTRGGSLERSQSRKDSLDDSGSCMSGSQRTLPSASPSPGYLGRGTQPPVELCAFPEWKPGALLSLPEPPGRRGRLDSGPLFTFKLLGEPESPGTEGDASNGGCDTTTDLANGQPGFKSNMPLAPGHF
Kind of assay: Prazosin effect on locomotor responses to D-amphetamine, cocaine and morphine. Type of assay: in vivo, mice. Conditions: prazosin 1 mg/kg i.p. pre-treatment. As for the experimental part:
Animals were placed in the experimental apparatus for 150 minutes, received two saline injections after 60 minutes and 90 minutes spent in the corridor. On the following day, animals were placed in the experimental apparatus for 60 minutes, they received an intrapenitoneal injection of either saline or prazosin (1 mg/kg) and were replaced in the corridor for 30 minutes. […] Independent groups of animals were used for each treatment to avoid eventual behavioral sensitization (N=6-12 per group).
as §1, with “In each session, the spontaneous activity was recorded for 90 minutes, before mice received either saline or drugs.” left out

The test system of another assay is α1-adrenergic receptors. Conditions: cited from earlier work.
Setting [5] is: α1b-AR KO mice, i.p., different doses.

As to `Br.C=CCN1CCc2c(cc(O)c(O)c2Cl)C(c2ccccc2)C1` (stereo not shown) [chloro-APB, chloro-APB hydrobromide], the locomotor activity result in the assay with WT and α1b-AR KO mice [1] (WT mice, chloro-APB i.p., several doses) is “dose-dependently increase locomotor activity”. The “amplitudes of locomotor responses, WT vs α1b-AR KO mice” value with WT and α1b-AR KO mice [1] (chloro-APB i.p., several doses) is given as “No significant differences”.
For `COC(=O)[C@H]1[C@@H](OC(=O)c2ccccc2)C[C@@H]2CC[C@H]1N2C.Cl` [cocaine, cocaine hydrochloride], the “amplitude of locomotor response, α1b-AR KO vs WT mice” value in the assay on WT and α1b-AR KO mice [1] is reported as “significantly altered by the genotype”. Also, the locomotor activity result is “dose-dependent stimulation of locomotor activity” with WT and α1b-AR KO mice [1] (WT mice, i.p., different doses); “also increased locomotor activity” with WT and α1b-AR KO mice [1] (setting [5]). Besides, the “locomotor responses of drug-treated vs naive mice” value in the assay on WT and α1b-AR KO mice [2] (KO mice, cocaine 5 mg/kg, 5 previous drug injections) was “no significant difference”. Also, the “rate of sensitization: slope of the number of injections/response curve” value with WT and α1b-AR KO mice [2] (WT mice, cocaine 5 mg/kg) is on record as 101.0±47.4; with WT and α1b-AR KO mice [2] (WT mice, cocaine 15 mg/kg) it was 198.2±48.19; in the assay on WT and α1b-AR KO mice [2] (α1b-AR KO mice, cocaine 5 mg/kg) it was −0.155±20.96; in the assay with WT and α1b-AR KO mice [2] (α1b-AR KO mice, cocaine 15 mg/kg), 102.8±19.37. Also, the “drug consumption vs water in two-bottle choice (rewarding properties)” value is recorded as “aversion” in the assay with WT and α1b-AR KO mice [3] (KO mice); “exhibited a preference” in the assay with WT and α1b-AR KO mice [3] (WT mice).
As for `CN1CC[C@]23c4c5ccc(O)c4O[C@H]2[C@@H](O)C=C[C@H]3[C@H]1C5` [morphine, morphine chiorhydrate], in the assay with WT and α1b-AR KO mice [1], the “amplitude of locomotor response, α1b-AR KO vs WT mice” value is “significantly altered by the genotype”. Also, in the assay on WT and α1b-AR KO mice [1] (KO mice), the stereotyped walking behavior entry is given as “induced a stereotyped walking behavior”. For the same molecule, the locomotor activity entry in the assay with WT and α1b-AR KO mice [1] (WT mice, i.p., different doses) is given as “dose-dependent stimulation of locomotor activity”; with WT and α1b-AR KO mice [1] (setting [5]), “also increased locomotor activity”. Besides, the “rate of sensitization: slope of the number of injections/response curve” value in the assay with WT and α1b-AR KO mice [2] (WT mice, morphine 7.5 mg/kg) is recorded as 146.7±51.4; with WT and α1b-AR KO mice [2] (α1b-AR KO mice, morphine 7.5 mg/kg) it was 38.17±19.48. Moreover, the “drug consumption vs water in two-bottle choice (rewarding properties)” value in the assay with WT and α1b-AR KO mice [3] (KO mice) is “aversion”. Further, the “conditioned place preference (CPP)” value with WT and α1b-AR KO mice [4] (KO mice) is given as “not in KO mice”; in the assay on WT and α1b-AR KO mice [4] (WT mice), “significant CPP was induced”. The “locomotor activity during conditioning sessions, morphine vs saline” value in the assay on WT and α1b-AR KO mice [4] (KO mice) is “no significant difference”; in the assay on WT and α1b-AR KO mice [4] (WT mice), “induce a behavioral sensitization in WT”.
With `COc1cc2nc(N3CCN(C(=O)c4ccco4)CC3)nc(N)c2cc1OC` [prazosin], the “effect on locomotor response to D-amphetamine” value on α1b-ARs (WT mice, D-amphetamine 3 mg/kg) was “significantly reduced”. Further, the “effect on locomotor response to cocaine” value on α1b-ARs (WT mice, cocaine 20 mg/kg) is “significantly reduced”. The “effect on locomotor response to morphine” value on α1b-ARs (WT mice, morphine 10 mg/kg) is “significantly reduced”. Moreover, at α1b-ARs (α1b-AR KO mice), the “effect on locomotor responses to D-amphetamine, cocaine and morphine” value is on record as “failed to modify”. Besides, in the assay on α1-adrenergic receptors (background statement), the “behavioral sensitization with prazosin co-administered with repeated cocaine or D-amphetamine injections” value was “no behavioral sensitization is observed”; the “locomotor hyperactivity induced by D-amphetamine, cocaine, GBR12783 and morphine” value is listed as “completely inhibits”. Besides, in the assay on α1-adrenergic receptors (rats, Darracq et al. 1998), the “D-amphetamine-induced locomotor hyperactivity and extracellular DA responses in the nucleus accumbens” value is reported as “inhibits D-amphetamine-induced locomotor hyperactivity without modifying extracellular DA responses”.
As to `CN1[C@@H]2C[C@@H](OC(=O)[C@H](CO)c3ccccc3)C[C@H]1[C@@H]1O[C@@H]12` [scopolamine, scopolamine hydrobromide], the “stimulatory effect on locomotor activity, WT vs α1b-AR KO mice” value in the assay on WT and α1b-AR KO mice [1] (scopolamine 1 mg/kg i.p., 60 minutes) was “equivalent”.
